ChEMBL document CHEMBL3885881, “DrugMatrix”

Species on record: Rattus norvegicus
Assay: DrugMatrix - Regimen: Daily Repeat
Assay type: toxicity, organism-based, Sprague-Dawley
Set-up: regimen Daily Repeat, gender Male, age 6-8 weeks
Conditions: in vivo, po, route oral GAVAGE, vehicle .5 % CMC; for ABSOLUTE BASOPHIL / ABSOLUTE EOSINOPHIL / ABSOLUTE LYMPHOCYTE / ABSOLUTE MONOCYTE / ABSOLUTE SEGMENTED NEUTROPHIL / BASOPHIL / EOSINOPHIL / ERYTHROCYTE COUNT / HEMATOCRIT / HEMOGLOBIN / LEUKOCYTE COUNT / LYMPHOCYTE / MEAN CORPUSCULAR HEMOGLOBIN / MEAN CORPUSCULAR HEMOGLOBIN CONCENTRATION / MEAN CORPUSCULAR VOLUME / MONOCYTE / NEUTROPHIL / NUCLEATED RED BLOOD CELLS / PLATELET COUNT: tissue Blood; for ALANINE AMINOTRANSFERASE / ALBUMIN / ALKALINE PHOSPHATASE / ASPARTATE AMINOTRANSFERASE / BLOOD UREA NITROGEN / CARBON DIOXIDE / CHLORIDE / CHOLESTEROL / CREATINE PHOSPHOKINASE / CREATININE / GLUCOSE / LACTATE DEHYDROGENASE / LIPASE / PHOSPHORUS / POTASSIUM / SODIUM / TOTAL BILIRUBIN / TOTAL PROTEIN / URIC ACID: tissue Plasma
[1] = 0 mg/kg, 72 h, dose level Control, time 3 day
[2] = 0 mg/kg, 120 h, dose level Control, time 5 day
[3] = […], 72 h, dose 0.83 mg/Kg, dose level Low, time 3 day
[4] = […], 120 h, dose 0.83 mg/Kg, dose level Low, time 5 day

In the case of `C[C@]12CC[C@@H]3c4ccc(O)cc4CC[C@H]3[C@@H]1C[C@@H](O)[C@@H]2O` [ESTRIOL], the “ABSOLUTE BASOPHIL” value [1] is reported as 0 CELLS/uL, the “ABSOLUTE EOSINOPHIL” value [1] is reported as 171.33 CELLS/uL and the “ABSOLUTE LYMPHOCYTE” value [1] is reported as 13776.5 CELLS/uL. For the same molecule, the “ABSOLUTE MONOCYTE” value [1] was 180.83 CELLS/uL, the “ABSOLUTE SEGMENTED NEUTROPHIL” value [1] was 1121.33 CELLS/uL and the BASOPHIL [1] was 0%. The EOSINOPHIL [1] was 1%, the “ERYTHROCYTE COUNT” value [1] was 5.56 x10E6/uL and the HEMATOCRIT [1] was 34.75%. The HEMOGLOBIN [1] was 13.68 G/DL, the “LEUKOCYTE COUNT” value [1] was 15.25 x10E3/uL and the LYMPHOCYTE [1] was 90.17%. The “MEAN CORPUSCULAR HEMOGLOBIN” value [1] was 24.6 pg, the “MEAN CORPUSCULAR HEMOGLOBIN CONCENTRATION” value [1] was 39.4 G/DL and the “MEAN CORPUSCULAR VOLUME” value [1] was 62.48 fL. For the same molecule, the MONOCYTE [1] was 1.17%, the NEUTROPHIL [1] was 7.67% and the “NUCLEATED RED BLOOD CELLS” value [1] was 0 /100WBC. For the same molecule, the “PLATELET COUNT” value [1] was 1342 x10E3/uL, the “ALANINE AMINOTRANSFERASE” value [1] was 49.67 u/L and the ALBUMIN [1] was 4.15 G/DL. The “ALKALINE PHOSPHATASE” value [1] was 346.83 u/L, the “ASPARTATE AMINOTRANSFERASE” value [1] was 108.17 u/L and the “BLOOD UREA NITROGEN” value [1] was 17.33 mg/dL. For the same molecule, the “CARBON DIOXIDE” value [1] was 25 mmol/L, the CHLORIDE [1] was 100.83 MEQ/L and the CHOLESTEROL [1] was 66.83 mg/dL. For the same molecule, the “CREATINE PHOSPHOKINASE” value [1] was 788 u/L, the CREATININE [1] was 0.18 mg/dL and the GLUCOSE [1] was 151.67 mg/dL. The “LACTATE DEHYDROGENASE” value [1] was 982.5 u/L, the LIPASE [1] was 10.33 u/L and the PHOSPHORUS [1] was 11.23 mg/dL. The POTASSIUM [1] was 6.37 MEQ/L, the SODIUM [1] was 141.02 MEQ/L and the “TOTAL BILIRUBIN” value [1] was 0.18 mg/dL. For the same molecule, the “TOTAL PROTEIN” value [1] was 5.9 G/DL, the “URIC ACID” value [1] was 1.8 mg/dL and the “ABSOLUTE BASOPHIL” value [2] was 0 CELLS/uL. The “ABSOLUTE EOSINOPHIL” value [2] was 69 CELLS/uL, the “ABSOLUTE LYMPHOCYTE” value [2] was 13632.83 CELLS/uL and the “ABSOLUTE MONOCYTE” value [2] was 139.83 CELLS/uL. The “ABSOLUTE SEGMENTED NEUTROPHIL” value [2] was 1225 CELLS/uL, the BASOPHIL [2] was 0% and the EOSINOPHIL [2] was 0.33%. The “ERYTHROCYTE COUNT” value [2] was 5.52 x10E6/uL, the HEMATOCRIT [2] was 33.98% and the HEMOGLOBIN [2] was 13.22 G/DL. For the same molecule, the “LEUKOCYTE COUNT” value [2] was 15.07 x10E3/uL, the LYMPHOCYTE [2] was 90.83% and the “MEAN CORPUSCULAR HEMOGLOBIN” value [2] was 23.95 pg. The “MEAN CORPUSCULAR HEMOGLOBIN CONCENTRATION” value [2] was 38.9 G/DL, the “MEAN CORPUSCULAR VOLUME” value [2] was 61.53 fL and the MONOCYTE [2] was 0.83%. For the same molecule, the NEUTROPHIL [2] was 8%, the “NUCLEATED RED BLOOD CELLS” value [2] was 0 /100WBC and the “PLATELET COUNT” value [2] was 1196 x10E3/uL. The “ALANINE AMINOTRANSFERASE” value [2] was 49.17 u/L, the ALBUMIN [2] was 4.2 G/DL and the “ALKALINE PHOSPHATASE” value [2] was 352.33 u/L. For the same molecule, the “ASPARTATE AMINOTRANSFERASE” value [2] was 89.67 u/L, the “BLOOD UREA NITROGEN” value [2] was 18 mg/dL and the “CARBON DIOXIDE” value [2] was 27.67 mmol/L. For the same molecule, the CHLORIDE [2] was 101 MEQ/L, the CHOLESTEROL [2] was 72.83 mg/dL and the “CREATINE PHOSPHOKINASE” value [2] was 417.5 u/L. The CREATININE [2] was 0.18 mg/dL, the GLUCOSE [2] was 150.5 mg/dL and the “LACTATE DEHYDROGENASE” value [2] was 517.33 u/L. For the same molecule, the LIPASE [2] was 9 u/L, the PHOSPHORUS [2] was 11.87 mg/dL and the POTASSIUM [2] was 6.57 MEQ/L. The SODIUM [2] was 143.62 MEQ/L, the “TOTAL BILIRUBIN” value [2] was 0.2 mg/dL and the “TOTAL PROTEIN” value [2] was 6.08 G/DL. The “URIC ACID” value [2] was 1.45 mg/dL, the “ABSOLUTE BASOPHIL” value [3] was 0 CELLS/uL and the “ABSOLUTE EOSINOPHIL” value [3] was 41 CELLS/uL. For the same molecule, the “ABSOLUTE LYMPHOCYTE” value [3] was 11813.33 CELLS/uL, the “ABSOLUTE MONOCYTE” value [3] was 115.33 CELLS/uL and the “ABSOLUTE SEGMENTED NEUTROPHIL” value [3] was 930.33 CELLS/uL. For the same molecule, the BASOPHIL [3] was 0%, the EOSINOPHIL [3] was 0.33% and the “ERYTHROCYTE COUNT” value [3] was 5.37 x10E6/uL. For the same molecule, the HEMATOCRIT [3] was 33.8%, the HEMOGLOBIN [3] was 13.17 G/DL and the “LEUKOCYTE COUNT” value [3] was 12.9 x10E3/uL. The LYMPHOCYTE [3] was 91.33%, the “MEAN CORPUSCULAR HEMOGLOBIN” value [3] was 24.53 pg and the “MEAN CORPUSCULAR HEMOGLOBIN CONCENTRATION” value [3] was 38.97 G/DL. For the same molecule, the “MEAN CORPUSCULAR VOLUME” value [3] was 62.9 fL, the MONOCYTE [3] was 1% and the NEUTROPHIL [3] was 7.33%. The “NUCLEATED RED BLOOD CELLS” value [3] was 0 /100WBC, the “PLATELET COUNT” value [3] was 1229.33 x10E3/uL and the “ALANINE AMINOTRANSFERASE” value [3] was 41.67 u/L. For the same molecule, the ALBUMIN [3] was 4.13 G/DL, the “ALKALINE PHOSPHATASE” value [3] was 500 u/L and the “ASPARTATE AMINOTRANSFERASE” value [3] was 89.33 u/L. The “BLOOD UREA NITROGEN” value [3] was 17.67 mg/dL, the “CARBON DIOXIDE” value [3] was 23.67 mmol/L and the CHLORIDE [3] was 103.67 MEQ/L. For the same molecule, the CHOLESTEROL [3] was 36 mg/dL, the “CREATINE PHOSPHOKINASE” value [3] was 654.33 u/L and the CREATININE [3] was 0.23 mg/dL. The GLUCOSE [3] was 162 mg/dL, the “LACTATE DEHYDROGENASE” value [3] was 616.67 u/L and the LIPASE [3] was 10.67 u/L. The PHOSPHORUS [3] was 11.97 mg/dL, the POTASSIUM [3] was 6.03 MEQ/L and the SODIUM [3] was 144.8 MEQ/L. The “TOTAL BILIRUBIN” value [3] was 0.17 mg/dL, the “TOTAL PROTEIN” value [3] was 6 G/DL and the “URIC ACID” value [3] was 1.6 mg/dL. For the same molecule, the “ABSOLUTE BASOPHIL” value [4] was 0 CELLS/uL, the “ABSOLUTE EOSINOPHIL” value [4] was 0 CELLS/uL and the “ABSOLUTE LYMPHOCYTE” value [4] was 12894 CELLS/uL. For the same molecule, the “ABSOLUTE MONOCYTE” value [4] was 233.33 CELLS/uL, the “ABSOLUTE SEGMENTED NEUTROPHIL” value [4] was 972.67 CELLS/uL and the BASOPHIL [4] was 0%. The EOSINOPHIL [4] was 0%, the “ERYTHROCYTE COUNT” value [4] was 5.98 x10E6/uL and the HEMATOCRIT [4] was 36.97%. The HEMOGLOBIN [4] was 13.8 G/DL, the “LEUKOCYTE COUNT” value [4] was 14.1 x10E3/uL and the LYMPHOCYTE [4] was 91.33%. The “MEAN CORPUSCULAR HEMOGLOBIN” value [4] was 23.07 pg, the “MEAN CORPUSCULAR HEMOGLOBIN CONCENTRATION” value [4] was 37.33 G/DL and the “MEAN CORPUSCULAR VOLUME” value [4] was 61.87 fL. For the same molecule, the MONOCYTE [4] was 1.67%, the NEUTROPHIL [4] was 7% and the “NUCLEATED RED BLOOD CELLS” value [4] was 0 /100WBC. The “PLATELET COUNT” value [4] was 1068.67 x10E3/uL, the “ALANINE AMINOTRANSFERASE” value [4] was 43.67 u/L and the ALBUMIN [4] was 4.23 G/DL. For the same molecule, the “ALKALINE PHOSPHATASE” value [4] was 477 u/L, the “ASPARTATE AMINOTRANSFERASE” value [4] was 80.33 u/L and the “BLOOD UREA NITROGEN” value [4] was 17.33 mg/dL. For the same molecule, the “CARBON DIOXIDE” value [4] was 26.33 mmol/L, the CHLORIDE [4] was 101.67 MEQ/L and the CHOLESTEROL [4] was 36.33 mg/dL. For the same molecule, the “CREATINE PHOSPHOKINASE” value [4] was 414 u/L, the CREATININE [4] was 0.19 mg/dL and the GLUCOSE [4] was 148.33 mg/dL. The “LACTATE DEHYDROGENASE” value [4] was 577 u/L, the LIPASE [4] was 8.33 u/L and the PHOSPHORUS [4] was 10.9 mg/dL. For the same molecule, the POTASSIUM [4] was 6.26 MEQ/L, the SODIUM [4] was 144.2 MEQ/L and the “TOTAL BILIRUBIN” value [4] was 0.23 mg/dL. The “TOTAL PROTEIN” value [4] was 6.3 G/DL and the “URIC ACID” value [4] was 1.63 mg/dL.
